This is an account of results in patent publication US5849494A, “Methods for sensitive detection of reverse transcriptase” (priority 1996, dated 1998).

One assay addresses RT in group M sera (HIV-1 M:B_HXB2R, UniProt P04585). Particulars: 10 group M-infected persons; unprocessed 2 μl serum samples. As to the method:
(§1) Plasma samples from 55 HIV-1 infected persons, ten seroconversion panels and 100 uninfected controls were studied. Two micoliter volumes of unprocessed plasma were tested in duplicate by the Amp-RT protocol as described above. The viral load was determined from a standard curve generated by known numbers of recombinant HIV-1 RT molecules and was expressed as equivalents of recombinant RT (rRT) molecules/ml. For comparison, RNA virus loads were also determined by the NASBA commercial assay (Organon).
(§2) To measure the sensitivity of group M and group O viruses to nevirapine (Boehringer Mannheim), the Amp-RT assay as described herein was used to measure the enzymatic activity of RT of these viruses in the presence or absence of the drug. Ten microliters of culture supernatants were added to 40 μl of RT buffer containing 10 ng of RNA template, 10 units of Rnasin (Promega, Wis.), 0.06% NP-40, 100 ng of the antisense primer EMCR2 (SEQ ID NO:2), 0.8 mM EGTA, 2 mM dithiothreitol, 50 mM Tris-HCl, 10 mM MgCl2 and 200 μM of each dNTP with or without 100 μM of nevirapine. […] For quantitative detection, blots were exposed for 3-6 hours and their radioactivities were read and measured by a Phosphor Imager (Model # 400E, Molecular Dynamics, Inc., CA). […]
(§3) Applicability to serum screening was evaluated in 10 group O-infected and 10 group M-infected persons.

In assay [1] the target is T1, RT of group O reference isolate MVP5180 (Human immunodeficiency virus type 1 group O, UniProt Q79666).
T1 construct: measure the enzymatic activity of RT of these viruses
Briefly: Amp-RT assay of RT activity of HIV-1 group O isolate with or without nevirapine. The format is biochemical. Particulars: nevirapine at 100 μM, culture supernatant. As to the method:
(§4) To measure the sensitivity of group M and group O viruses to nevirapine (Boehringer Mannheim), the Amp-RT assay as described herein was used to measure the enzymatic activity of RT of these viruses in the presence or absence of the drug. Ten microliters of culture supernatants were added to 40 μl of RT buffer containing 10 ng of RNA template, 10 units of Rnasin (Promega, Wis.), 0.06% NP-40, 100 ng of the antisense primer EMCR2 (SEQ ID NO:2), 0.8 mM EGTA, 2 mM dithiothreitol, 50 mM Tris-HCl, 10 mM MgCl2 and 200 μM of each dNTP with or without 100 μM of nevirapine. The reaction was incubated at 37° C. for one hour and heated at 95° C. for ten minutes. The products of the RT reaction were PCR amplified for 35 cycles at 95° C. for one minute, 55° C. for one minute and 72° C. for one minute after the addition of 50 μl of PCR buffer containing 2.5 units of Taq polymerase, 100 ng of sense primer EMCF1': 5'[…]3' (SEQ ID NO:10). Twenty microliters of the reaction product was electrophoresed in 1.8% agarose gels and Southern blot hybridized to ^32 P-end labeled internal probe EMCP1 (SEQ ID NO:3). For qualitative detection, blots were exposed on autoradiographic film for 12-16 hours. For quantitative detection, blots were exposed for 3-6 hours and their radioactivities were read and measured by a Phosphor Imager (Model # 400E, Molecular Dynamics, Inc., CA). […]

A further assay has as its target T2, RT in group O sera (HIV-1 O_MVP5180, UniProt Q79666).
T2 construct: Amp-RT with EMCV RNA template
Description: Direct Amp-RT assay of sera from group O-infected persons with or without nevirapine. The assay is classed as biochemical, HIV-1 group O. The conditions noted are these: 10 group O-infected persons; unprocessed 2 μl serum samples. The method, then: as §1, §2, §3

The next assay deals with RT of group M viruses (HIV-1 M:B_HXB2R, UniProt P04585). The conditions noted are these: nevirapine at 100 μM; 21 group M reference isolates of A through F subtypes; culture supernatants. The method, then:
as §4

Regarding `Cc1ccnc2c1NC(=O)c1cccnc1N2C1CC1` [nevirapine], the “Amp-RT result of group M sera with nevirapine” value on RT in group M sera was “positive only in the absence of nevirapine”. Besides, the “Sensitivity of group O reference isolate to nevirapine (Amp-RT)” value in assay [1] is given as “resistant”. Further, on RT in group O sera, the “Amp-RT result of group O sera with nevirapine” value is “Amp-RT positive in the presence and absence of nevirapine”. The “Effect on Amp-RT activity of group M reference isolates” value on RT of group M viruses was “inhibit”.
